Like-named read-outs stand apart in the source and are kept apart here.
Key:
[1] = snar bond
[2] = molecular target: CFTR-mediated chloride transport (Homo sapiens, UniProt P13569); assay type: cell-based; conditions: enteroid cells incubated with test compound 18-24 hours, acute 10 μM forskolin and 300 nM Compound III; for Max. Activity: % of chloride transport with 3 μM Compound A, 3 μM Compound II and 300 nM acute Compound III triple combination control
Method in brief: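 Membrane-potential fluorescence AUC over 15 min quantified CFTR chloride transport after acute forskolin (10 μM), IBMX (100 μM) and Compound III (300 nM) in chloride-free buffer. Human enteroid cells were pretreated with compound for 18–24 h; % Activity is relative to 3 μM Compound A + 3 μM Compound II + 300 nM Compound III.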

Sequence of CFTR-mediated chloride transport (P13569 whole entry, looked up): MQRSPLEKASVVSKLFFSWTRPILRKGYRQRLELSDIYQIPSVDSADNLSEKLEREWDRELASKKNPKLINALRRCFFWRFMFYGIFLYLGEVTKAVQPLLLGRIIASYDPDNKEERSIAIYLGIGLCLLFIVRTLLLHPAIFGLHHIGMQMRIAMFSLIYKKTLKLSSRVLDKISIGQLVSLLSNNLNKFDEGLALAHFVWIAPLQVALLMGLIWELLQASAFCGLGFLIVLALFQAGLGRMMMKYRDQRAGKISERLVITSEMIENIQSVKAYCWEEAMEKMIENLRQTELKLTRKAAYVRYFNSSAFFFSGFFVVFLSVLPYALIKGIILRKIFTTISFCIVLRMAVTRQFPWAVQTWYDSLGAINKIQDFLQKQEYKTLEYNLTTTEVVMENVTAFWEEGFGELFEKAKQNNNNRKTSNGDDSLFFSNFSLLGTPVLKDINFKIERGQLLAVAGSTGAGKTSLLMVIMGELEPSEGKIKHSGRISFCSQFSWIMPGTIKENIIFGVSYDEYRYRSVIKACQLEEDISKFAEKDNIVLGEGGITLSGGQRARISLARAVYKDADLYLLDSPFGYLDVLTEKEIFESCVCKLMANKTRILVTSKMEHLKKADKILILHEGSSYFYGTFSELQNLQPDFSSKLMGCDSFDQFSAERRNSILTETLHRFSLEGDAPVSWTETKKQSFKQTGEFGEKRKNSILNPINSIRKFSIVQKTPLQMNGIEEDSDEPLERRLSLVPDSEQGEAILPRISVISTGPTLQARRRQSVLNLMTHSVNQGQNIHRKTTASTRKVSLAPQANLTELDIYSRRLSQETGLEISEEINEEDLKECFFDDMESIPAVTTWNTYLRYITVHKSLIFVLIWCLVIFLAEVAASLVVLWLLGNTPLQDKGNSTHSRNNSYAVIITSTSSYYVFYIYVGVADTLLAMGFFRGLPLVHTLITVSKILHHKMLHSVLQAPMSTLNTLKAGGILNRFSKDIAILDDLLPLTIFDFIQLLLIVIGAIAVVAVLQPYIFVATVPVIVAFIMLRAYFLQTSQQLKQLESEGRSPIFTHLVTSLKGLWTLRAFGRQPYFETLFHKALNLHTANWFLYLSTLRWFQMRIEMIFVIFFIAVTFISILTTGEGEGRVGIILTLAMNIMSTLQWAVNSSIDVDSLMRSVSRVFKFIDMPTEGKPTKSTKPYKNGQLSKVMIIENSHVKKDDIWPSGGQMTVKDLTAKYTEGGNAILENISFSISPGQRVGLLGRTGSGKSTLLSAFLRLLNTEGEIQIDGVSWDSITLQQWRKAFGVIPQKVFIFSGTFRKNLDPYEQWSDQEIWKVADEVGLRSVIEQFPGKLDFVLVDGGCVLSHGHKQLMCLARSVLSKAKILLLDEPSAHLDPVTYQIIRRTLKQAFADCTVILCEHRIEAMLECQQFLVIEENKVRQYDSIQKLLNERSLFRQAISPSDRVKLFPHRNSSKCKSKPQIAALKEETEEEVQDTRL

SMILES | EC50 [2] [µM] | Max. Activity [2] | further results
Cc1cc2nn1CCCC1CN(c3nc(-n4ccc(OCCC5(C(F)(F)F)CC5)n4)ccc3C(=O)NS2(=O)=O)C(C)(C)C1 (stereo not drawn) [Compound 144, 13,20,20-Trimethyl-4-(3-{2-[1-(trifluoromethyl)cyclopropyl]ethoxy}-1H-pyrazol-1-yl)-10λ^6-thia-1,3,9,14,22-pentaazatetracyclo[16.2.1.111,14.02,7]docosa-2,4,6,11(22),12-pentaene-8,10,10-trione] | < 1 | ++ (++ is 30-60%) | ring closure, isolated yield ([1]; from Cc1cc(S(=O)(=O)NC(=O)c2ccc(-n3ccc(OCCC4(C(F)(F)F)CC4)n3)nc2Cl)nn1CCCC1CN(C(=O)OC(C)(C)C)C(C)(C)C1, 14-membered ring, K2CO3/CsF/3A MS, DMSO, 44.1 mM, 155.0 °C, 2 steps): 38%
CC1(C)CC2CCNc3cccc(n3)S(=O)(=O)NC(=O)c3ccc(-n4ccc(OCCC5(C(F)(F)F)CC5)n4)nc3N1C2 (stereo not drawn) [Compound 20, 7,7-dimethyl-11-(3-{2-[1-(trifluoromethyl)cyclopropyl]ethoxy}-1H-pyrazol-1-yl)-17λ^6-thia-2,8,10,16,22-pentaazatetracyclo[16.3.1.15,8.09,14]tricosa-1(21),9,11,13,18(22),19-hexaene-15,17,17-trione] | < 1 | +++ (+++ is >60%) | ring closure, isolated yield ([1]; from CC1(C)CC(CCNc2cccc(S(=O)(=O)NC(=O)c3ccc(-n4ccc(OCCC5(C(F)(F)F)CC5)n4)nc3Cl)n2)CN1, 14-membered ring, K2CO3/CsF/3A MS, DMSO, 54.4 mM, 155.0 °C): 43%
CC1(C)C[C@H]2CCCNc3cccc(n3)S(=O)(=O)NC(=O)c3ccc(-n4ccc(OCCC5C6(CC6)C56CC6)n4)nc3N1C2 [Compound 194, (14R)-8-[3-(2-{Dispiro[2.0.2.1]heptan-7-yl}ethoxy)-1H-pyrazol-1-yl]-12,12-dimethyl-2λ^6-thia-3,9,11,18,23-pentaazatetracyclo[17.3.1.111,14.05,10]tetracosa-1(22),5,7,9,19(23),20-hexaene-2,2,4-trione] | < 1 | ++ (++ is 30-60%) | ring closure, isolated yield ([1]; from CC1(C)C[C@@H](CCCNc2cccc(S(=O)(=O)NC(=O)c3ccc(-n4ccc(OCCC5C6(CC6)C56CC6)n4)nc3Cl)n2)CN1, 15-membered ring, K2CO3, NMP, 72.4 mM, 135.0 °C, 22.0 h): 57%
[2H]C([2H])(COc1ccn(-c2ccc3c(n2)N2C[C@@H](CCCNc4cccc(n4)S(=O)(=O)NC3=O)CC2(C)C)n1)C([2H])([2H])C1(C(F)(F)F)CC1 [Compound 287, (14S)-12,12-dimethyl-8-(3-{3-[1-(trifluoromethyl)cyclopropyl]-2,2,3,3-tetradeuterio-propoxy}-1H-pyrazol-1-yl)-2λ^6-thia-3,9,11,18,23-pentaazatetracyclo[17.3.1.111,14.05,10]tetracosa-1(22),5,7,9,19(23),20-hexaene-2,2,4-trione] | < 1 | ++ (++ is 30-60%) | ring closure, isolated yield ([1]; from [2H]C([2H])(COc1ccn(-c2ccc(C(=O)NS(=O)(=O)c3cccc(NCCC[C@@H]4CNC(C)(C)C4)n3)c(Cl)n2)n1)C([2H])([2H])C1(C(F)(F)F)CC1, 15-membered ring, K2CO3, NMP, 20.8 mM, 155.0 °C, 18.0 h): 73%
CC1(C)C[C@@H]2CCCNc3cccc(n3)S(=O)(=O)NC(=O)c3ccc(-n4ccc(OCC(O)CC5(C(F)(F)F)CC5)n4)nc3N1C2 (stereo partly drawn) [Compound 259, (14S)-8-(3-{2-hydroxy-3-[1-(trifluoromethyl)cyclopropyl]propoxy}-1H-pyrazol-1-yl)-12,12-dimethyl-2λ^6-thia-3,9,11,18,23-pentaazatetracyclo[17.3.1.111,14.05,10]tetracosa-1(22),5(10),6,8,19(23),20-hexaene-2,2,4-trione] | < 1 | +++ (+++ is >60%) | ring closure, isolated yield ([1]; from CC(C)(C)OC(=O)N1C[C@@H](CCCNc2cccc(S(=O)(=O)NC(=O)c3ccc(-n4ccc(OCC(O)CC5(C(F)(F)F)CC5)n4)nc3Cl)n2)CC1(C)C, 15-membered ring, HCl/dioxane/DCM, then K2CO3/3A MS, DMSO, 28.6 mM, 155.0 °C, 2 steps): 42%
[2H]C([2H])([2H])C1(C([2H])([2H])[2H])C[C@@H]2CCCNc3cccc(n3)S(=O)(=O)NC(=O)c3ccc(-n4ccc(OCCCC5(C(F)(F)F)CC5)n4)nc3N1C2 [Compound 292, (14S)-12,12-di(trideuterio)methyl-8-(3-{3-[1-(trifluoromethyl)cyclopropyl]propoxy}-1H-pyrazol-1-yl)-2λ^6-thia-3,9,11,18,23-pentaazatetracyclo[17.3.1.111,14.05,10]tetracosa-1(22),5,7,9,19(23),20-hexaene-2,2,4-trione] | < 1 | +++ (+++ is >60%) | ring closure, isolated yield ([1]; from [2H]C([2H])([2H])C1(C([2H])([2H])[2H])C[C@H](CCCNc2cccc(S(=O)(=O)NC(=O)c3ccc(-n4ccc(OCCCC5(C(F)(F)F)CC5)n4)nc3Cl)n2)CN1, 15-membered ring, K2CO3, NMP, 41.5 mM, 135.0 °C, 22.0 h): 27%
CC1(C)C[C@@H]2CCCNc3cccc(n3)S(=O)(=O)NC(=O)c3ccc(-n4ccc(OCCC(C5CC5)C5CC5)n4)nc3N1C2 [Compound 66, (14S)-8-[3-(3,3-dicyclopropylpropoxy)-1H-pyrazol-1-yl]-12,12-dimethyl-2λ^6-thia-3,9,11,18,23-pentaazatetracyclo[17.3.1.111,14.05,10]tetracosa-1(22),5,7,9,19(23),20-hexaene-2,2,4-trione] | < 1 | +++ (+++ is >60%) | ring closure, isolated yield ([1]; from CC1(C)C[C@H](CCCNc2cccc(S(=O)(=O)NC(=O)c3ccc(-n4ccc(OCCC(C5CC5)C5CC5)n4)nc3Cl)n2)CN1, 15-membered ring, K2CO3/CsF, NMP, 75.7 mM, 150.0 °C, 20.0 h): 63%
CC1(C)C[C@@H]2CCCNc3cccc(n3)S(=O)(=O)NC(=O)c3ccc(-n4ccc(OCCCC5(C(F)(F)F)CC5)n4)nc3N1C2 [Compound 161, (14S)-12,12-dimethyl-8-(3-{3-[1-(trifluoromethyl)cyclopropyl]propoxy}-1H-pyrazol-1-yl)-2λ^6-thia-3,9,11,18,23-pentaazatetracyclo[17.3.1.111,14.05,10]tetracosa-1(22),5,7,9,19(23),20-hexaene-2,2,4-trione] | < 1 | +++ (+++ is >60%) | ring closure, isolated yield ([1]; from 2-chloro-N-[[6-[3-[(3S)-5,5-dimethylpyrrolidin-3-yl]propylamino]-2-pyridyl]sulfonyl]-6-[3-[3-[1-(trifluoromethyl)cyclopropyl]propoxy]pyrazol-1-yl]pyridine-3-carboxamide (dihydrochloride salt), 15-membered ring, K2CO3/CsF, NMP, 83.9 mM, 150.0 °C): 55%

Reference: patent US11866450B2, “Modulators of Cystic Fibrosis Transmembrane Conductance regulator, pharmaceutical compositions, methods of treatment, and process for making the modulators” (priority 2018, dated 2024)
